From paper PMC11678328, “Phosphine Oxide Indenoquinoline Derivatives: Synthesis and Biological Evaluation as Topoisomerase I Inhibitors and Antiproliferative Agents” (Molecules, 2024)

What was measured:
[1] = test system: MRC-5, lung fibroblast cells; assay: CCK-8 cytotoxicity assay, MRC5; assay type: cell-based, human; conditions: Homo sapiens; MRC5 non-cancerous cells, 48h, CCK-8
Text: (§1) The cytotoxic effects of the newly synthesized diphenyl(tetrahydro-5H-indeno[2,1-c]quinolin-2-yl)phosphine oxides 8, diphenyl(7H-indeno[2,1-c]quinolin-2-yl)phosphine oxides 9, and diphenyl(7-oxo-7H-indeno[2,1-c]quinolin-2-yl)phosphine oxides 10 derivatives were studied against several human cell lines: A549 (carcinomic human alveolar basal epithelial cell), SKOV3 (human ovarian carcinoma), and HEK293 (human embryonic kidney). Furthermore, in order to analyze the selective cytotoxicity facing exclusively cancerous cell lines, toxicity against a non-cancerous cell line (MRC-5, lung fibroblast cells) was also evaluated (Table 3). The cell counting kit (CCK-8) assay was employed to assess the growth inhibition and cell proliferation inhibitory activities of the compounds, which are described in Table 3 as IC50 values.
(§2) Cells were cultured according to the supplier’s instructions. Cells were seeded in 96-well plates at a density of 1.5–3 × 10^3 cells per well and incubated overnight in 0.1 mL of media supplied with 10% Fetal Bovine Serum (Lonza) in a 5% CO2 incubator at 37 °C. On day 2, drugs were added and the samples were incubated for 48h. After treatment, 10 μL of the cell counting kit-8 was added into each well for an additional 2h incubation at 37 °C. The absorbance of each well was determined by an Automatic Elisa Reader System at 450 nm wavelength (deducting 620 nm). CPT was used as the positive control.

[2] = test system: SKOV3 (human ovarian carcinoma); assay: CCK-8 cytotoxicity assay, SKOV3; assay type: cell-based; conditions: SK-OV-3, SKOV3 cells, 48h
Text: as §1, §2

[3] = target: T1, human TOP1 (Homo sapiens, UniProt P11387); assay: TOP1 supercoiled plasmid DNA relaxation assay; assay type: biochemical
T1 construct: made in house; host or cells: Saccharomyces cerevisiae TOP1 null strain RS190, plasmid pHT143 (GAL promoter)
T1 sequence (P11387 1-765): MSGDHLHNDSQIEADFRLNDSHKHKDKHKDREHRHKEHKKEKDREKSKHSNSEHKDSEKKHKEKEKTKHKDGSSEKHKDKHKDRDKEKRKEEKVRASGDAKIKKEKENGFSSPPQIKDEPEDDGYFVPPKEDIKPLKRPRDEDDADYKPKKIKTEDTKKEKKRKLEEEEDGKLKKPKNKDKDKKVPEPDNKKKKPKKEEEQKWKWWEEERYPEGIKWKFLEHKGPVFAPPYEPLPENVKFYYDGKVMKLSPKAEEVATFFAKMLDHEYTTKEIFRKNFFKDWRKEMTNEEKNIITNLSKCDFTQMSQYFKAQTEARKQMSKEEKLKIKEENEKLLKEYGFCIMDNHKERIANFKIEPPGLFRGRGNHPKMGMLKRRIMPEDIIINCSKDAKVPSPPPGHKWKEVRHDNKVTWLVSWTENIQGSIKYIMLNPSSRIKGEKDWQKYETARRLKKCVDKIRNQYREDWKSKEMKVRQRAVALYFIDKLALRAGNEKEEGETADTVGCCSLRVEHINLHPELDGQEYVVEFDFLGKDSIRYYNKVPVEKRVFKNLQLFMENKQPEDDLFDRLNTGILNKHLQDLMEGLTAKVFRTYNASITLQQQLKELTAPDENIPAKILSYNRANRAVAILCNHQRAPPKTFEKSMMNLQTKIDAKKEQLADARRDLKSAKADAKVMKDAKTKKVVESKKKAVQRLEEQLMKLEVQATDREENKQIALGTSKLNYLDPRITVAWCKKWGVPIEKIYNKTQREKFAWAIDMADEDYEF
Text: The effect of the previously prepared compounds as TOP1 inhibitors was studied. A conventional supercoiled plasmid relaxation assay was used to determine if the newly fused tetrahydroindenoquinolines 8, more aromatic indenoquinolines 9, and carbonyl derivatives 10 with phosphine oxide substituents inhibit human TOP1 activity by converting supercoiled plasmid DNA to its relaxed form. In these experiments, compound samples were mixed with the enzyme followed by the addition of a supercoiled plasmid DNA substrate, and incubation continued for increasing time intervals (1 min, 3 min, and 5 min). The reaction was terminated by the addition of SDS. DNA relaxation products were then resolved by 1% agarose electrophoresis gel and visualized by gel red staining.
The yeast Saccaromyces cerevisiae TOP1 null strain RS190, which was used for the expression of recombinant human TOP1, was a kind gift from R. Sternglanz (State University of New York, Stony Brook, NY, USA). Plasmid pHT143, for the expression of recombinant TOP1 under the control of an inducible GAL promoter, was described. The plasmids pHT143 were transformed into the yeast S. cerevisiae strain RS190. The proteins were expressed and purified by affinity chromatography essentially as described. The protein concentrations were estimated from Coomassie blue-stained SDS/polyacrylamide gels by comparison to serial dilutions of bovine serum albumin (BSA).
TOP1 activity was assayed using a DNA relaxation assay by incubating 110 ng/mL of TOP1 with 0.5 µg of negatively supercoiled pUC18 in […] of reaction buffer (20 mM Tris HCl, 0.1 mM Na2EDTA, 10 mM MgCl2, […] acetylated BSA, and 150 mM KCl, pH 7.5). The effect of the synthesized phosphorylated derivatives 8, 9, and 10 on the TOP1 activity was measured by adding different concentrations of the compounds, at different time points, as indicated in the text. The reactions were performed at 37 °C stopped by the addition of 0.5% SDS after the indicated time intervals. The samples were protease-digested and electrophoresed in a horizontal 1% agarose gel in 1xTBE (50 mM Tris, 45 mM boric acid, 1 mM EDTA) at 25V during 18h. The gel was stained with gel red (BIOTIUM, 5 mg/mL), destained with water, and photographed under UV illumination. Since all drugs were dissolved in dimethyl sulfoxide (DMSO), a […] control sample containing the same DMSO concentration as the samples incubated with the drugs was included in all experiments.

[4] = test system: A549 (carcinomic human alveolar basal epithelial cell); assay: CCK-8 cytotoxicity assay, A549; assay type: cell-based; conditions: Homo sapiens, A549, 48 h, A549 cells, 48h, CCK-8
Text: as §1, §2

[5] = target: T1, human TOP1; assay: TOP1 supercoiled plasmid DNA relaxation assay; assay type: biochemical; remark: listed apart in the source
[6] = test system: HEK293 (human embryonic kidney); assay: CCK-8 cytotoxicity assay, HEK293; assay type: cell-based; conditions: HEK293 cells, 48h
Text: as §1, §2

O=P(c1ccccc1)(c1ccccc1)c1ccc2c(c1)C1c3ccccc3CC1C(c1ccc(C(F)(F)F)cc1)N2 (centres unmarked) [Compound 8b, Diphenyl(6-(4-(trifluoromethyl)phenyl)-6,6a,7,11b-tetrahydro-5H-indeno[2,1-c]quinolin-2-yl)phosphine oxide]
IC50 [1]: > 50 µM | IC50 [2]: > 50 µM | TOP1 relaxation activity after preincubation of compound with TOP1 ([3]; 100 μM, compound incubated with TOP1 for 15 min at 37 °C, then DNA added): the enzyme was inactive, not being able to relax the DNA | Persistence of TOP1 inhibition over the time course ([3]; 100 μM, in words): more persistent inhibition | TOP1 Inhibition 1 min ([3]; 1 min reaction, compounds at 100 μM, semiquantitative): +++ (strong inhibition) | TOP1 Inhibition 3 min ([3]; 3 min reaction, compounds at 100 μM, semiquantitative): +++ (strong inhibition) | TOP1 Inhibition 5 min ([3]; 5 min reaction, compounds at 100 μM, semiquantitative): +++ (strong inhibition) | IC50 [4]: 25.8 ± 6.98 µM | TOP1 relaxation activity after preincubation of compound with DNA ([5]; 100 μM, compound incubated with DNA for 15 min at 37 °C before TOP1 was added): partially relaxing the DNA | TOP1 Inhibition 30 min ([5]; 30 min reaction, compounds at 100 μM, semiquantitative): +++ (strong inhibition) | IC50 [6]: > 50 µM
